The molecules below were run against T1, mutant G12C K-RAS (Homo sapiens, UniProt P01116, G12C) (assay: covalent adduct formation (CAF) with mutant G12C K-RAS). Conditions: Table 1, Pyrimidone Core-Morpholine Unsubstituted; after 60 minutes at 10 micromolar.
T1 construct: made in house; host or cells: E. coli BL21
Assay type: binding
Design: CAF: unit not given here
Procedure: Embodiments disclosed herein are further illustrated by the following examples in Tables 1-4 and the Examples hereinbelow. The Tables indicate the compound number, structure, the observed mass spectral molecular weight peak, and covalent adduct formation (CAF) with a mutant G12C K-RAS after 60 minutes at a concentration of 10 micromolar.

Row | % CAF (60 min) | SMILES
1 | 46% | C#CC(=O)N1C[C@H](C)N(c2nc(=O)n3c4c(c(-c5ccc(F)cc5F)c(Cl)cc24)OCC3)C[C@H]1C [Example 14]
2 | 68% | C=CC(=O)N1C[C@H](C)N(c2nc(=O)n3c4c(c(-c5ccc(F)cc5F)c(Cl)cc24)OCC3)C[C@H]1C [Example 11, 7-((2S,5R)-4-acryloyl-2,5-dimethylpiperazin-1-yl)-9-chloro-10-(2,4-difluorophenyl)-2H-[1,4]oxazino[2,3,4-ij]quinazolin-5(3H)-one]

Same assay, conditions: Table 2, Pyrimidone Core-Morpholine Substituted; after 60 minutes at 10 micromolar

Row | % CAF (60 min) | SMILES
3 | 85.5% | C=CC(=O)N1C[C@H](C)N(c2nc(=O)n3c4c(c(-c5c(O)cccc5F)c(Cl)cc24)OC[C@@H]3CO)C[C@H]1C [Example 27, (3S,10S)-7-((2S,5R)-4-acryloyl-2,5-dimethylpiperazin-1-yl)-9-chloro-10-(2-fluoro-6-hydroxyphenyl)-3-(hydroxymethyl)-2H-[1,4]oxazino[2,3,4-ij]quinazolin-5(3H)-one]

Same assay, conditions: Table 3, Pyridone Core-Morpholine Unsubstituted; after 60 minutes at 10 micromolar

Row | CAF | SMILES
4 | 0 | C=CC(=O)N1C[C@H](C)N(c2c(C#N)c(=O)n3c4c(c(-c5c(O)cccc5F)c(Cl)cc24)OCC3)C[C@H]1C [Example 42, (S)-7-((2S,5R)-4-acryloyl-2,5-dimethylpiperazin-1-yl)-9-chloro-10-(2-fluoro-6-hydroxyphenyl)-5-oxo-3,5-dihydro-2H-[1,4]oxazino[2,3,4-ij]quinoline-6-carbonitrile]

Same assay, conditions: Table 6; 10 μM, 1 h

Row | SMILES | % CAF @ 10 μM,1 h
5 | C=CC(=O)N1C[C@H](C)N(c2nc(=O)n3c4c(c(-c5ccc(F)cc5F)c(Cl)cc24)OC[C@H]3CCCN2CCC(C(=O)NC3CC3)CC2)C[C@H]1C [Example 278] | 98.3%
6 | C=CC(=O)N1C[C@H](C)N(c2nc(=O)n3c4c(c(-c5ccc(F)cc5F)c(Cl)cc24)OC[C@H]3CN(C(=O)[C@@H]2CCCN2C)C2CC2)C[C@H]1C [Example 307, (2S)-N-(((3R)-7-((2S,5R)-4-acryloyl-2,5-dimethylpiperazin-1-yl)-9-chloro-10-(2,4-difluorophenyl)-5-oxo-3,5-dihydro-2H-[1,4]oxazino[2,3,4-ij]quinazolin-3-yl)methyl)-N-cyclopropyl-1-methylpyrrolidine-2-carboxamide] | 51.1%
7 | C=CC(=O)N1C[C@H](C)N(c2nc(=O)n3c4c(c(-c5ccc(F)cc5F)c(Cl)cc24)OC[C@H]3CCCN2CC(F)(F)C2)C[C@H]1C [Example 298, (3R)-7-((2S,5R)-4-acryloyl-2,5-dimethylpiperazin-1-yl)-9-chloro-3-(3-(3,3-difluoroazetidin-1-yl)propyl)-10-(2,4-difluorophenyl)-2,3-dihydro-5H-[1,4]oxazino[2,3,4-ij]quinazolin-5-one] | 68%
8 | C=CC(=O)N1C[C@H](C)N(c2nc(=O)n3c4c(c(-c5ccc(F)cc5F)c(Cl)cc24)OC[C@H]3COC2CCN(C)CC2)C[C@H]1C [Example 297, (3R)-7-((2S,5R)-4-acryloyl-2,5-dimethylpiperazin-1-yl)-9-chloro-10-(2,4-difluorophenyl)-3-(((1-methylpiperidin-4-yl)oxy)methyl)-2H-[1,4]oxazino[2,3,4-ij]quinazolin-5(3H)-one] | 90.5%
9 | C=CC(=O)N1C[C@H](C)N(c2nc(=O)n3c4c(c(-c5ccc(F)cc5F)c(Cl)cc24)OC[C@H]3CCCN2CC(F)C2)C[C@H]1C [Example 279, (3R)-7-((2S,5R)-4-acryloyl-2,5-dimethylpiperazin-1-yl)-9-chloro-10-(2,4-difluorophenyl)-3-(3-(3-fluoroazetidin-1-yl)propyl)-2,3-dihydro-5H-[1,4]oxazino[2,3,4-ij]quinazolin-5-one] | 97.5%
10 | C=CC(=O)N1C[C@H](C)N(c2nc(=O)n3c4c(c(-c5cccc6ccccc56)c(Cl)cc24)OC[C@H]3Cn2ccnc2)C[C@H]1C (atropisomer, axis not shown) [Example 318, (3R,10S)-3-((1H-imidazol-1-yl)methyl)-7-((2S,5R)-4-acryloyl-2,5-dimethylpiperazin-1-yl)-9-chloro-10-(naphthalen-1-yl)-2,3-dihydro-5H-[1,4]oxazino[2,3,4-ij]quinazolin-5-one] | 70.6%
11 | C=CC(=O)N1C[C@H](C)N(c2nc(=O)n3c4c(c(-c5cccc6ccccc56)c(Cl)cc24)OC[C@H]3Cn2ccnc2)C[C@H]1C (atropisomer, axis not shown) [Example 317, (3R,10R)-3-((1H-imidazol-1-yl)methyl)-7-((2S,5R)-4-acryloyl-2,5-dimethylpiperazin-1-yl)-9-chloro-10-(naphthalen-1-yl)-2,3-dihydro-5H-[1,4]oxazino[2,3,4-ij]quinazolin-5-one] | 72.8%
12 | C=CC(=O)N1C[C@H](C)N(c2nc(=O)n3c4c(c(-c5ccc(F)cc5F)c(Cl)cc24)OC[C@H]3CCCN(C)C2COC2)C[C@H]1C [Example 327, (3R)-7-((2S,5R)-4-acryloyl-2,5-dimethylpiperazin-1-yl)-9-chloro-10-(2,4-difluorophenyl)-3-(3-(methyl(oxetan-3-yl)amino)propyl)-2,3-dihydro-5H-[1,4]oxazino[2,3,4-ij]quinazolin-5-one] | 84.5%
13 | C=CC(=O)N1C[C@H](C)N(c2nc(=O)n3c4c(c(-c5ccc(F)cc5F)c(Cl)cc24)OC[C@H]3Cn2cccn2)C[C@H]1C [Example 234, (3R)-3-((1H-pyrazol-1-yl)methyl)-7-((2S,5R)-4-acryloyl-2,5-dimethylpiperazin-1-yl)-9-chloro-10-(2,4-difluorophenyl)-2H-[1,4]oxazino[2,3,4-ij]quinazolin-5(3H)-one] | 71.3%
14 | C=CC(=O)N1C[C@H](C)N(c2nc(=O)n3c4c(c(-c5ccc(F)cc5F)c(Cl)cc24)OC[C@H]3CC2CCN(C3CC3)CC2)C[C@H]1C [Example 329, (3R)-7-((2S,5R)-4-acryloyl-2,5-dimethylpiperazin-1-yl)-9-chloro-3-((1-cyclopropylpiperidin-4-yl)methyl)-10-(2,4-difluorophenyl)-2H-[1,4]oxazino[2,3,4-ij]quinazolin-5(3H)-one] | 73.4%
15 | C=CC(=O)N1C[C@H](C)N(c2nc(=O)n3c4c(c(-c5ccc(F)cc5F)c(Cl)cc24)OC[C@H]3CCCn2ccnc2)C[C@H]1C [Example 272, (3R)-3-(3-(1H-imidazol-1-yl)propyl)-7-((2S,5R)-4-acryloyl-2,5-dimethylpiperazin-1-yl)-9-chloro-10-(2,4-difluorophenyl)-2,3-dihydro-5H-[1,4]oxazino[2,3,4-ij]quinazolin-5-one] | 89.4%
16 | C=CC(=O)N1C[C@H](C)N(c2nc(=O)n3c4c(c(-c5c(C)ccc6[nH]ncc56)c(Cl)cc24)OC[C@H]3CCCN2C[C@@H]3C[C@H]2CO3)C[C@H]1C (atropisomer, axis not shown) [Example 326, (3R,10R)-3-(3-((1S,4S)-2-oxa-5-azabicyclo[2.2.1]heptan-5-yl)propyl)-7-((2S,5R)-4-acryloyl-2,5-dimethylpiperazin-1-yl)-9-chloro-10-(5-methyl-1H-indazol-4-yl)-2,3-dihydro-5H-[1,4]oxazino[2,3,4-ij]quinazolin-5-one] | 94.2%

Results, then the molecule that gave them:

Row | % CAF @ 10 μM,1 h | SMILES
17 | 0% | C=CC(=O)N1C[C@H](C)N(c2nc(=O)n3c4c(c(-c5c(O)cccc5F)c(Cl)cc24)OC[C@H]3CN2CCOCC2)C[C@H]1C (atropisomer, axis not shown) [Example 210, (3R,10R)-7-((2S,5R)-4-acryloyl-2,5-dimethylpiperazin-1-yl)-9-chloro-10-(2-fluoro-6-hydroxyphenyl)-3-(morpholinomethyl)-2,3-dihydro-5H-[1,4]oxazino[2,3,4-ij]quinazolin-5-one]
18 | 97.4% | C=CC(=O)N1C[C@H](C)N(c2nc(=O)n3c4c(c(-c5c(O)cccc5F)c(Cl)cc24)OC[C@H]3Cn2cccn2)C[C@H]1C (atropisomer, axis not shown) [Example 246, (3R,10S)-3-((1H-pyrazol-1-yl)methyl)-7-((2S,5R)-4-acryloyl-2,5-dimethylpiperazin-1-yl)-9-chloro-10-(2-fluoro-6-hydroxyphenyl)-2H-[1,4]oxazino[2,3,4-ij]quinazolin-5(3H)-one]
19 | 0% | C=CC(=O)N1C[C@H](C)N(c2nc(=O)n3c4c(c(-c5c(O)cccc5F)c(Cl)cc24)OC[C@@H]3CN2CCN(C)CC2)C[C@H]1C (atropisomer, axis not shown) [Example 305, (3S,10R)-7-((2S,5R)-4-acryloyl-2,5-dimethylpiperazin-1-yl)-9-chloro-10-(2-fluoro-6-hydroxyphenyl)-3-((4-methylpiperazin-1-yl)methyl)-2,3-dihydro-5H-[1,4]oxazino[2,3,4-ij]quinazolin-5-one]
20 | 98% | C=CC(=O)N1CCN(c2nc(=O)n3c4c(c(-c5c(O)cccc5F)c(Cl)cc24)OC[C@@H]3CN2CCC(F)(F)C2)[C@@H](C)C1 (atropisomer, axis not shown) [Example 228, (3S,10S)-7-((S)-4-acryloyl-2-methylpiperazin-1-yl)-9-chloro-3-((3,3-difluoropyrrolidin-1-yl)methyl)-10-(2-fluoro-6-hydroxyphenyl)-2,3-dihydro-5H-[1,4]oxazino[2,3,4-ij]quinazolin-5-one]
21 | 45.8% | C=CC(=O)N1C[C@H](C)N(c2nc(=O)n3c4c(c(-c5ccc(F)cc5F)c(Cl)cc24)OC[C@H]3CO[C@@H]2CCN(C)C2)C[C@H]1C [Example 302, (3R)-7-((2S,5R)-4-acryloyl-2,5-dimethylpiperazin-1-yl)-9-chloro-10-(2,4-difluorophenyl)-3-((((R)-1-methylpyrrolidin-3-yl)oxy)methyl)-2,3-dihydro-5H-[1,4]oxazino[2,3,4-ij]quinazolin-5-one]
22 | 76.9% | C=CC(=O)N1C[C@H](C)N(c2nc(=O)n3c4c(c(-c5ccc(F)cc5F)c(Cl)cc24)OC[C@@H]3COC[C@H]2CCCN2C)C[C@H]1C [Example 277, (3S)-7-((2S,5R)-4-acryloyl-2,5-dimethylpiperazin-1-yl)-9-chloro-10-(2,4-difluorophenyl)-3-((((R)-1-methylpyrrolidin-2-yl)methoxy)methyl)-2H-[1,4]oxazino[2,3,4-ij]quinazolin-5(3H)-one]
